Assay results reported in patent US6667413B2, “Uracil compounds and use thereof” (Sumitomo Chemical Company, Limited, priority 1999, dated 2003).

Columns and labels:
Test in all cases: Test Example 6: foliar treatment, herbicidal activity index
Assay type in all cases: in vivo
Design in all cases: key: 0: no or little difference in the degree of germination or growth between the treated and the untreated tested plants at the time of examination; 10: the test plants died complete or their germination or growth was completely inhibited
Conditions in all cases: foliar spray, 4 days after application, index 0 to 10
[1] = tested on: Broadleaf signalgrass (Brachiaria platyphylla)
Experimental: (§1) A plastic pot (27 cm×19 cm×7 cm) was filled with soil and then seeded with Johnsongrass (Sorghum halepense), Giant foxtail (Setaria faberi), barnyardgrass (Echinochloa crus-galli), large crabgrass (Digitaria sanguinalis), Broadleaf signalgrass (Brachiaria platyphylla) and wild oat (Avena fatua). These test plants were grown in a greenhouse for 25 days. After then, each of the compounds 3-11, 4-22, B and C was formulated into an emulsifiable concentrate according to Formulation Example 2 and then diluted to the prescribed amount with water containing a spreading agent and the dilution was uniformly sprayed over the foliage of the test plants with a sprayer at a rate of 1000 liters per hectare. After the application, the test plants were grown in the greenhouse for 4 days, and the herbicidal activity was examined. (In the Table 9, the test plants are shown as follows. Johnsongrass: J, Giant foxtail: GF, Barnyardgrass: B Large crabgrass: LC, Broadleaf signalgrass: BC wild oat: W

[2] = tested on: barnyardgrass (Echinochloa crus-galli)
Experimental: as §1

[3] = tested on: Giant foxtail (Setaria faberi)
Experimental: as §1

[4] = tested on: large crabgrass (Digitaria sanguinalis)
Experimental: as §1

wild oat (Avena fatua) = tested on: wild oat (Avena fatua)
Experimental: as §1

[5] = tested on: Johnsongrass (Sorghum halepense)
Experimental: as §1

Question: How did the “Herbicidal activity BC” value ([1]; 0.33 g/ha) turn out when `COc1ccccc1Oc1cc(-n2c(=O)cc(C(F)(F)F)n(C)c2=O)c(F)cc1C#N` [B, reference compound] was run?
Answer: Its value is 2.

Question: What about the “Herbicidal activity BC” value ([1]; 1 g/ha) of the same molecule?
Answer: The value was 6.

Question: What about the “Herbicidal activity BC” value ([1]; 3.3 g/ha) of the same molecule?
Answer: The value was 8.

Question: And the “Herbicidal activity B” value ([2]; 0.33 g/ha)?
Answer: The value was 2.

Question: And the “Herbicidal activity B” value ([2]; 1 g/ha)?
Answer: The value was 6.

Question: And the “Herbicidal activity B” value ([2]; 3.3 g/ha)?
Answer: Its value is 7.

Question: And the “Herbicidal activity GF” value ([3]; 0.33 g/ha)?
Answer: The value was 3.

Question: And the “Herbicidal activity GF” value ([3]; 1 g/ha)?
Answer: Its value is 5.

Question: And the “Herbicidal activity GF” value ([3]; 3.3 g/ha)?
Answer: Its value is 7.

Question: And the “Herbicidal activity LC” value ([4]; 0.33 g/ha)?
Answer: The value was 3.

Question: What about the “Herbicidal activity LC” value ([4]; 1 g/ha) of the same molecule?
Answer: The value was 7.

Question: And the “Herbicidal activity LC” value ([4]; 3.3 g/ha)?
Answer: Its value is 8.

Question: And the “Herbicidal activity W” value (wild oat (Avena fatua); 0.33 g/ha)?
Answer: Its value is 2.

Question: What about the “Herbicidal activity W” value (wild oat (Avena fatua); 1 g/ha) of the same molecule?
Answer: The value was 5.

Question: And the “Herbicidal activity W” value (wild oat (Avena fatua); 3.3 g/ha)?
Answer: Its value is 7.

Question: What about the “Herbicidal activity J” value ([5]; 0.33 g/ha) of the same molecule?
Answer: The value was 2.

Question: And the “Herbicidal activity J” value ([5]; 1 g/ha)?
Answer: The value was 7.

Question: And the “Herbicidal activity J” value ([5]; 3.3 g/ha)?
Answer: Its value is 7.

Question: Which results are given for `COC(=O)c1ccccc1Oc1cc(-n2c(=O)cc(C(F)(F)F)n(C)c2=O)c(F)cc1C#N` [C, reference compound]?
Answer: Herbicidal activity BC ([1]; 0.33 g/ha): 2; Herbicidal activity BC ([1]; 1 g/ha): 3; Herbicidal activity BC ([1]; 3.3 g/ha): 6; Herbicidal activity B ([2]; 0.33 g/ha): 1; Herbicidal activity B ([2]; 1 g/ha): 4; Herbicidal activity B ([2]; 3.3 g/ha): 6; Herbicidal activity GF ([3]; 0.33 g/ha): 1; Herbicidal activity GF ([3]; 1 g/ha): 3; Herbicidal activity GF ([3]; 3.3 g/ha): 4; Herbicidal activity LC ([4]; 0.33 g/ha): 2; Herbicidal activity LC ([4]; 1 g/ha): 3; Herbicidal activity LC ([4]; 3.3 g/ha): 5; Herbicidal activity W (wild oat (Avena fatua); 0.33 g/ha): 1; Herbicidal activity W (wild oat (Avena fatua); 1 g/ha): 3; Herbicidal activity W (wild oat (Avena fatua); 3.3 g/ha): 5; Herbicidal activity J ([5]; 0.33 g/ha): 2; Herbicidal activity J ([5]; 1 g/ha): 4; Herbicidal activity J ([5]; 3.3 g/ha): 6

Question: How did the “Herbicidal activity BC” value ([1]; 0.33 g/ha) turn out when `COC(=O)COc1ccccc1Oc1cc(-n2c(=O)cc(C(F)(F)F)n(C)c2=O)c(F)cc1C#N` [Compound 4-22] was run?
Answer: The value was 8.

Question: And the “Herbicidal activity BC” value ([1]; 1 g/ha)?
Answer: The value was 8.

Question: And the “Herbicidal activity BC” value ([1]; 3.3 g/ha)?
Answer: The value was 9.

Question: What about the “Herbicidal activity B” value ([2]; 0.33 g/ha) of the same molecule?
Answer: Its value is 8.

Question: What about the “Herbicidal activity B” value ([2]; 1 g/ha) of the same molecule?
Answer: The value was 9.

Question: What about the “Herbicidal activity B” value ([2]; 3.3 g/ha) of the same molecule?
Answer: Its value is 9.

Question: And the “Herbicidal activity GF” value ([3]; 0.33 g/ha)?
Answer: The value was 7.

Question: What about the “Herbicidal activity GF” value ([3]; 1 g/ha) of the same molecule?
Answer: The value was 8.

Question: What about the “Herbicidal activity GF” value ([3]; 3.3 g/ha) of the same molecule?
Answer: The value was 10.

Question: What about the “Herbicidal activity LC” value ([4]; 0.33 g/ha) of the same molecule?
Answer: The value was 9.

Question: And the “Herbicidal activity LC” value ([4]; 1 g/ha)?
Answer: The value was 9.

Question: What about the “Herbicidal activity LC” value ([4]; 3.3 g/ha) of the same molecule?
Answer: The value was 9.

Question: And the “Herbicidal activity W” value (wild oat (Avena fatua); 0.33 g/ha)?
Answer: The value was 8.

Question: What about the “Herbicidal activity W” value (wild oat (Avena fatua); 1 g/ha) of the same molecule?
Answer: The value was 9.

Question: What about the “Herbicidal activity W” value (wild oat (Avena fatua); 3.3 g/ha) of the same molecule?
Answer: Its value is 10.

Question: And the “Herbicidal activity J” value ([5]; 0.33 g/ha)?
Answer: The value was 8.

Question: What about the “Herbicidal activity J” value ([5]; 1 g/ha) of the same molecule?
Answer: The value was 8.

Question: What about the “Herbicidal activity J” value ([5]; 3.3 g/ha) of the same molecule?
Answer: The value was 9.
